Test results taken from patent US10765764B2, “Probes for imaging huntingtin protein” (CHDI Foundation, Inc., priority 2015, dated 2020).

Experiments:
Aβ aggregates = molecular target: T1, Aβ aggregates (Homo sapiens, UniProt P05067); assay: Autoradiography binding to Aβ aggregates in APP/PS1 mouse brain sections; details: 1 nM radioligand, 12-month old heterozygous APP/PS1 mouse brain, compared with wild-type littermate
T1 construct: from tissue; host or cells: brain sections of 12 month old heterozygous APP/PS1 mice
From the text: Generation of tritiated compound 1, Method 1, for autoradiography studies was achieved by treating phenolic Compound 2 of Method 2 with tritiated methyl nosylate and a suitable base in N,N-dimethylformamide Purification by HPLC gave the tritiated compound in high radiochemical purity.
Brains were extracted from 12 month old heterozygous APP/PS1 animals (J. Neurochemistry 2009, 108, 1177-1186) and quickly frozen on dry ice in small weigh boats, wrapped with tin foil and stored in zip-lock bags at −80° C. for sectioning. Using a Leica CM3050S cryostat, 20 μm thick sections were generated representing the hippocampus (Bregma −1.34/−3.80) and the cortex/striatum (Bregma 1.54/−0.94). […]
10-[^3H]-methoxy-N-(pyridin-3-yl)-7-thia-2,5-diazatricyclo[6.4.0.0^2,6]dodeca-1(12),3,5,8,10-pentaene-4-carboxamide binding was determined in brain sections of a 12 month old APP/PS1 mouse and a WT littermate. […] Non-specific binding was determined for each radioligand in the presence of 1 μM of respective, cold ligand equivalent. […]
Quantification and Analysis: Signal intensity (cpm/mm^2) was measured for each brain section using Beta Vision+software. Specific (displaceable) binding, expressed in cpm/mm^2, was defined by the difference between total and non-specific binding and calculated as follows: (Total non-specific)/Total×100%. […]

mHTT aggregates = assay: Autoradiography of mHTT aggregates in R6/2 mouse brain; assay type: binding; details: 0.5 nM, 10 week old R6/2 mouse brain, compared with wild-type littermate
Q46 protein aggregates = molecular target: T2, Q46 protein aggregates (Homo sapiens, UniProt P42858); assay: Q46 Radioligand Binding Assay (RBA), displacement of [^3H3]MK-3328; details: 10 nM [^3H3]MK-3328, 5 μM Q46 protein aggregates
T2 construct: fused on or other part: An N-terminal GST tag, cleaved off with thrombin before the assay to trigger aggregation
Method in brief: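 Aggregates were formed by thrombin cleavage of GST-Q46 for 16 h at 37° C. and pelleted. Aggregates (5 μM monomer equivalent) were preincubated 20 min with compound (1 μM–30 pM), then given 10 nM [3H]MK-3328 for 60 min at 37° C. in 150 mM NaCl, 50 mM Tris pH 8.0. Filter-bound counts were normalised to 3 μM unlabelled MK-3328 and fitted to a four-parameter IC50.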

[1] = test system: recombinant tau and amyloid β1-42 (Aβ1-42) aggregates; details: recombinant tau and Aβ1-42 aggregates; cited from earlier work
[2] = test system: NFT in sections of AD brain tissue; details: in vitro autoradiography and fluorescent staining; cited from earlier work

T1 sequence (P05067 672-713 limits assumed): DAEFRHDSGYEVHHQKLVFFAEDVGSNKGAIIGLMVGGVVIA
T2 sequence (P42858 with tags, fused parts or gaps with the stated changes, form open): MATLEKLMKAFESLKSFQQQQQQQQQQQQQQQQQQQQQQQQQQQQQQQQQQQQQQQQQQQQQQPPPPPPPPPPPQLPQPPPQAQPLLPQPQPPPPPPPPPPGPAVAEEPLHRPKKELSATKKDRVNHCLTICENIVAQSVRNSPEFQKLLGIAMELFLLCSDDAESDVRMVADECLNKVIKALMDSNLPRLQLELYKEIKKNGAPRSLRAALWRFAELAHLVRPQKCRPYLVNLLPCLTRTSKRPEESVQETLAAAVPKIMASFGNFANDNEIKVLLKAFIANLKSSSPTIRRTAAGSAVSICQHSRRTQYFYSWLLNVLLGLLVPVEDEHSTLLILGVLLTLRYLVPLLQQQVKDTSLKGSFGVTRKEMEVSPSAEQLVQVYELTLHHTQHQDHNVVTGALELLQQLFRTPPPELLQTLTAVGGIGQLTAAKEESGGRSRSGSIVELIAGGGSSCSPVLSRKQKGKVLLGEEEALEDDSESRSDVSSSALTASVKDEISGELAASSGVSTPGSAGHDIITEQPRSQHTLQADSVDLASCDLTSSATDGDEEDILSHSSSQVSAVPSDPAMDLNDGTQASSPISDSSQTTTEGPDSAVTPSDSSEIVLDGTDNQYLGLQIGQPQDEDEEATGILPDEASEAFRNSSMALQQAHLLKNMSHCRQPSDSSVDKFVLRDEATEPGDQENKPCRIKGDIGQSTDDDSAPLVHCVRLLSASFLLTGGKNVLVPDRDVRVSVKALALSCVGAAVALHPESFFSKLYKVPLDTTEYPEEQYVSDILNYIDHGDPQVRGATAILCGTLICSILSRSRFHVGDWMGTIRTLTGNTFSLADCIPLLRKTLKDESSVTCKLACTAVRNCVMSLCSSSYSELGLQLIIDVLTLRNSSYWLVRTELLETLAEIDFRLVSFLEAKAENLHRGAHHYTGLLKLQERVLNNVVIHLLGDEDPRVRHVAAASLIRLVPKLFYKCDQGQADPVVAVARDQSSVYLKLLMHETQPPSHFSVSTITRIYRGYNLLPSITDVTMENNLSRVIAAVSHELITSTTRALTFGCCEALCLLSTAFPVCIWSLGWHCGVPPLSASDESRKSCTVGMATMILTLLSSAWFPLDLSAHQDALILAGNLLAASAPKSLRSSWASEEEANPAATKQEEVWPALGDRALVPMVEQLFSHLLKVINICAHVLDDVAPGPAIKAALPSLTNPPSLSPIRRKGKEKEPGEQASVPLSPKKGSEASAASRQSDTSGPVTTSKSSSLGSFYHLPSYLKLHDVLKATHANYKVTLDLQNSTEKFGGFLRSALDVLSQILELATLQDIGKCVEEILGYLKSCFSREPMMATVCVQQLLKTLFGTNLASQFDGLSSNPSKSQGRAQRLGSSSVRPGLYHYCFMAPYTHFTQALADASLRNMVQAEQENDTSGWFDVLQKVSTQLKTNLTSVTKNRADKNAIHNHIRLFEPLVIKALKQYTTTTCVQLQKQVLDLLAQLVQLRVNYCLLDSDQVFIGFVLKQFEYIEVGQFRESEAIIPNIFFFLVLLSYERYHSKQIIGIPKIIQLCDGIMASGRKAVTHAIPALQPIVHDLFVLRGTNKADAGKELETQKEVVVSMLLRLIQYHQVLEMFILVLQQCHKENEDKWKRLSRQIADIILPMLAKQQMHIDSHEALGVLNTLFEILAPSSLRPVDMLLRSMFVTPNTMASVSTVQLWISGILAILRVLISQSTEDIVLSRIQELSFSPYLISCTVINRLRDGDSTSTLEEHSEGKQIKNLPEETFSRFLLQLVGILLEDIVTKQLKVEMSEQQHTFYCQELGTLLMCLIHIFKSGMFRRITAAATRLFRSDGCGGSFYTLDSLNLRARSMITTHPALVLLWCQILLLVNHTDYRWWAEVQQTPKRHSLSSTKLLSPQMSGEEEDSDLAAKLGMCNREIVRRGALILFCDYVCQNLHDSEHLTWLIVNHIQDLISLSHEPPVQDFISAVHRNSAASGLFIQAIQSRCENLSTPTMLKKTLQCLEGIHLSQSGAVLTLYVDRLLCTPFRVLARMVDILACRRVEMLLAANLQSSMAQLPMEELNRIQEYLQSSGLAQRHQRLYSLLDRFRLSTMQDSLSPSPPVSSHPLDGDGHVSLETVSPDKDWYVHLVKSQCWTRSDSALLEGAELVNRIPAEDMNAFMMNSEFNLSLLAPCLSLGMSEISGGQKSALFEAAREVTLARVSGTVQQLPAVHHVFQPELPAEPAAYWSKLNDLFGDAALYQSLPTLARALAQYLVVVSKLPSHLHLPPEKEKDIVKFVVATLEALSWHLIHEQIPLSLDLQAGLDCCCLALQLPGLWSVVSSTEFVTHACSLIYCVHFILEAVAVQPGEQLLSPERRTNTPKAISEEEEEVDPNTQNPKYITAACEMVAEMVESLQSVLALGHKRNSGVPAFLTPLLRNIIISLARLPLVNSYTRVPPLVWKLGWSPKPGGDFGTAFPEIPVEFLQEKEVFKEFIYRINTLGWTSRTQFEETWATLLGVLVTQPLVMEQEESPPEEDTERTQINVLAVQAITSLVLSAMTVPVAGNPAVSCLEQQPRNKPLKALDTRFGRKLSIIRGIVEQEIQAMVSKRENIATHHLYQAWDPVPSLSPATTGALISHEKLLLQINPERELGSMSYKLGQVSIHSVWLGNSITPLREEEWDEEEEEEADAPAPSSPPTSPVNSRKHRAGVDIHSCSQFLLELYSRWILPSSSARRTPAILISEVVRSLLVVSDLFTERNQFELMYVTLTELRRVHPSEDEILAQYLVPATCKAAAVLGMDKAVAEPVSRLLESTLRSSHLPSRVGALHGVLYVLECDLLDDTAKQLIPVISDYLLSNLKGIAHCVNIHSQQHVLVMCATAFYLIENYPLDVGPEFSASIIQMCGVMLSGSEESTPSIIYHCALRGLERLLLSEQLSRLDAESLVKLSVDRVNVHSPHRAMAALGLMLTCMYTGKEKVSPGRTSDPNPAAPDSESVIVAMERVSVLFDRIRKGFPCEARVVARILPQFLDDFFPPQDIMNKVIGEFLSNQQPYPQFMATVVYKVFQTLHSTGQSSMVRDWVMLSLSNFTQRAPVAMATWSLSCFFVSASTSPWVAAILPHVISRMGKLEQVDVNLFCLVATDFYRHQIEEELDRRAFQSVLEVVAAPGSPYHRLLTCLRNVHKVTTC

Q: Which “visibility of Aβ aggregates in brain sections” value (Aβ aggregates) does the source give for `[3H]C([3H])([3H])Oc1ccc2c(c1)sc1nc(C(=O)Nc3cccnc3)cn12` [10-[^3H]-methoxy-N-(pyridin-3-yl)-7-thia-2,5-diazatricyclo[6.4.0.0^2,6]dodeca-1(12),3,5,8,10-pentaene-4-carboxamide] here?
A: Aβ aggregates are visible

Q: With `COc1ccc2c(c1)sc1nc(C(=O)Nc3ccc(=O)n(C)n3)cn12` [10-methoxy-N-(1-methyl-6-oxo-1,6-dihydropyridazin-3-yl)-7-thia-2,5-diazatricyclo[6.4.0.0^2,6]dodeca-1(12),3,5,8,10-pentaene-4-carboxamide] as the molecule, how does the “visibility of mHTT aggregates in brain sections” value (mHTT aggregates) read?
A: mHTT aggregates are visible

Q: And the IC50 (Q46 protein aggregates)?
A: < 0.1 µM

Q: What does the source list for `CN(C)c1ccc(/C=C/c2nc3ccc(I)cc3[nH]2)cc1` [SBIM-3, 4-[(E)-2-(6-iodo-1H-benzimidazol-2-yl)ethenyl]-N,N-dimethylaniline]?
A: ratio of Kd values (affinity for tau aggregates vs Aβ1-42 aggregates) [1]: 2.73; binding to NFT in sections of AD brain tissue [2]: bound NFT
